ChEMBL document CHEMBL1201862, “PubChem BioAssay data set” (2004)
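Five compound concentrations were applied to cells in 96-well plates for 48 hours; endpoints were derived by simple linear interpolation of the resulting dose-response curve. GI50: concentration for 50% inhibition of growth.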 The source made the active and inactive calls. Cut-off read from the data, not from the text of the source: active = GI50 up to about 1.1 µM and inactive = higher.

Columns and labels:
Test in all cases: DTP human tumour cell line panel, 48 h
786-0 = test system: 786-0
A498 = test system: A498
A549 = test system: A549
ACHN = test system: ACHN
CAKI-1 = test system: CAKI-1
CCRF-CEM = test system: CCRF-CEM
COLO 205 = test system: COLO 205
DU-145 = test system: DU-145
EKVX = test system: EKVX
HCC 2998 = test system: HCC 2998
HCT-116 = test system: HCT-116
HCT-15 = test system: HCT-15
HL-60 = test system: HL-60
HOP-62 = test system: HOP-62
HOP-92 = test system: HOP-92
HT-29 = test system: HT-29
Hs-578T = test system: Hs-578T
IGROV-1 = test system: IGROV-1
K562 = test system: K562
KM12 = test system: KM12
LOX IMVI = test system: LOX IMVI
M14 = test system: M14
MCF7 = test system: MCF7
MDA-MB-231 = test system: MDA-MB-231
MDA-MB-435 = test system: MDA-MB-435
MDA-N = test system: MDA-N
MOLT-4 = test system: MOLT-4
Malme-3M = test system: Malme-3M
NCI-H226 = test system: NCI-H226
NCI-H23 = test system: NCI-H23
NCI-H460 = test system: NCI-H460
NCI-H522 = test system: NCI-H522
NCI/ADR-RES = test system: NCI/ADR-RES
OVCAR-3 = test system: OVCAR-3
OVCAR-4 = test system: OVCAR-4
OVCAR-5 = test system: OVCAR-5
OVCAR-8 = test system: OVCAR-8
PC-3 = test system: PC-3
RPMI-8226 = test system: RPMI-8226
SF-268 = test system: SF-268
SF-295 = test system: SF-295
SF-539 = test system: SF-539
SK-MEL-28 = test system: SK-MEL-28
SK-MEL-2 = test system: SK-MEL-2
SK-MEL-5 = test system: SK-MEL-5
SK-OV-3 = test system: SK-OV-3
SN12C = test system: SN12C
SNB-19 = test system: SNB-19
SR = test system: SR
SW-620 = test system: SW-620
T47D = test system: T47D
TK-10 = test system: TK-10
U-251 = test system: U-251
UACC-257 = test system: UACC-257
UACC-62 = test system: UACC-62
RXF 393 = test system: RXF 393
SNB-75 = test system: SNB-75
UO-31 = test system: UO-31

Measured: GI50

CCOC(=O)/C(C)=C\[C@@]1(C)O[C@@H](C)[C@@](C)(OC(C)=O)[C@@H]1OC(C)=O
17.1 µM: HCT-15
inactive: 786-0 63.5 µM | A498 48 µM | A549 45.4 µM | ACHN 41 µM | CAKI-1 33 µM | CCRF-CEM 33.5 µM | COLO 205 30 µM | DU-145 37.1 µM | EKVX 36.1 µM | HCC 2998 30.2 µM | HCT-116 40.9 µM | HL-60 39.6 µM | HOP-62 70.6 µM | HOP-92 25.6 µM | HT-29 40.6 µM | Hs-578T 27 µM | IGROV-1 37.7 µM | K562 38.6 µM | KM12 45.2 µM | LOX IMVI 71 µM | M14 61.5 µM | MCF7 23 µM | MDA-MB-231 57.5 µM | MDA-MB-435 41.7 µM | MDA-N 44.5 µM | MOLT-4 30 µM | Malme-3M 57.3 µM | NCI-H226 39.9 µM | NCI-H23 21.5 µM | NCI-H460 43 µM | NCI-H522 25.2 µM | NCI/ADR-RES 30.2 µM | OVCAR-3 33.4 µM | OVCAR-4 33.4 µM | OVCAR-5 > 100 µM | OVCAR-8 67.5 µM | PC-3 36.6 µM | RPMI-8226 51.8 µM | SF-268 39.3 µM | SF-295 36.8 µM | SF-539 > 100 µM | SK-MEL-28 > 100 µM | SK-MEL-2 61.8 µM | SK-MEL-5 33.8 µM | SK-OV-3 75.7 µM | SN12C 57.1 µM | SNB-19 > 100 µM | SR 58.3 µM | SW-620 67.5 µM | T47D 19.9 µM | TK-10 78.9 µM | U-251 64.1 µM | UACC-257 28.2 µM | UACC-62 49.9 µM

COc1cc(C/N=c2/nc(N(C)C)ss2)cc(OC)c1OC
active: CCRF-CEM 0.189 µM | SR 0.358 µM
> 10 µM: HCT-15
inactive: 786-0 3.24 µM | A498 > 10 µM | A549 > 10 µM | ACHN > 10 µM | CAKI-1 > 10 µM | COLO 205 > 10 µM | DU-145 > 10 µM | EKVX > 10 µM | HCC 2998 > 10 µM | HCT-116 8.85 µM | HL-60 1.8 µM | HOP-62 > 10 µM | HOP-92 > 10 µM | HT-29 > 10 µM | Hs-578T > 10 µM | IGROV-1 > 10 µM | K562 1.46 µM | KM12 > 7.59 µM | LOX IMVI 2.1 µM | M14 > 9.1 µM | MCF7 > 5.78 µM | MDA-MB-231 > 10 µM | MDA-MB-435 > 10 µM | MDA-N > 10 µM | MOLT-4 2.81 µM | Malme-3M > 5.15 µM | NCI-H226 > 10 µM | NCI-H23 > 10 µM | NCI-H460 > 10 µM | NCI-H522 > 10 µM | NCI/ADR-RES > 10 µM | OVCAR-3 > 10 µM | OVCAR-4 > 9.27 µM | OVCAR-5 3.37 µM | OVCAR-8 > 4.99 µM | PC-3 > 10 µM | RPMI-8226 2.48 µM | RXF 393 > 10 µM | SF-268 > 10 µM | SF-295 > 10 µM | SF-539 > 10 µM | SK-MEL-28 > 7.31 µM | SK-MEL-5 > 10 µM | SK-OV-3 > 10 µM | SN12C > 10 µM | SNB-19 > 10 µM | SNB-75 > 10 µM | SW-620 5.6 µM | T47D > 10 µM | TK-10 > 10 µM | U-251 > 10 µM | UACC-257 > 10 µM | UACC-62 > 10 µM | UO-31 > 10 µM

O=C1Oc2ccccc2C(=O)/C1=C/N1C(=O)/C(=C/c2ccc3c(c2)OCO3)SC1=S
15.8 µM: HCT-15
active: OVCAR-3 0.405 µM
inactive: 786-0 43.4 µM | A498 3.99 µM | A549 18.1 µM | ACHN 11.8 µM | CAKI-1 17.5 µM | CCRF-CEM 26.1 µM | COLO 205 20.5 µM | DU-145 19.1 µM | EKVX 28.5 µM | HCC 2998 17.3 µM | HCT-116 33.7 µM | HL-60 26.9 µM | HOP-62 14.6 µM | HT-29 21.2 µM | Hs-578T 1.32 µM | IGROV-1 13.6 µM | K562 16.6 µM | KM12 16.8 µM | LOX IMVI 33.3 µM | M14 17.9 µM | MCF7 20.7 µM | MDA-MB-231 25.1 µM | MDA-MB-435 18.7 µM | MDA-N 24.9 µM | MOLT-4 17.5 µM | Malme-3M 19.8 µM | NCI-H226 11.5 µM | NCI-H23 11.8 µM | NCI-H460 16.8 µM | NCI-H522 15.8 µM | NCI/ADR-RES 18.5 µM | OVCAR-4 20.8 µM | OVCAR-5 16.6 µM | OVCAR-8 17.6 µM | PC-3 15.8 µM | RPMI-8226 14.1 µM | RXF 393 17.2 µM | SF-268 13.7 µM | SF-295 22.9 µM | SF-539 11.5 µM | SK-MEL-28 17.3 µM | SK-MEL-2 17.2 µM | SK-MEL-5 15.7 µM | SK-OV-3 22.5 µM | SN12C 18.2 µM | SNB-75 11.1 µM | SR 15.8 µM | SW-620 22.8 µM | T47D 13.6 µM | U-251 10 µM | UACC-257 24.3 µM | UACC-62 28.2 µM

COc1cc2c(cc1OCCOS(C)(=O)=O)N=C[C@@H]1CCCN1C2=O
inactive: A549 > 100 µM | COLO 205 24.1 µM | DU-145 27.3 µM | EKVX 32.7 µM | HCC 2998 30.7 µM | HL-60 26.9 µM | HOP-92 21.4 µM | HT-29 36.8 µM | Hs-578T 27.5 µM | IGROV-1 27.7 µM | KM12 33.9 µM | MCF7 39 µM | MDA-MB-435 20.3 µM | MOLT-4 21.9 µM | NCI-H460 97.7 µM | OVCAR-4 22.2 µM | OVCAR-8 32.1 µM | RXF 393 29.7 µM | SF-268 70.1 µM | SF-295 23.3 µM | SK-MEL-28 23.8 µM | SK-MEL-2 29.4 µM | SK-OV-3 > 100 µM | SN12C 26 µM | SNB-19 45.3 µM | SNB-75 54.1 µM | T47D 40.7 µM
